Measured values published in patent US11414385B2, “Compounds and methods for treating, detecting, and identifying compounds to treat apicomplexan parasitic diseases” (The University of Chicago, priority 2015, dated 2022).
“Also recorded” adds a separate entry of the source.

How the values were obtained:
[1] = system: P. berghei sporozoites, blood and liver stages; test: P. berghei sporozoite causal prophylaxis model in mice; format: in vivo, Plasmodium berghei
Experimental: P. berghei sporozoites. The methods that follow are taken directly from^24,25: From laboratory-reared female Anopheles stephensi, isolation, inoculation and viability check Plasmodium berghei sporozoites (luciferase expressing) were obtained and maintained at 18° C. for 17 to 22 days after feeding on malaria-infected Swiss CD-1/ICR mice. From malaria-infected mosquitoes, salivary glands were extracted and sporozoites obtained. Briefly, mosquitoes were separated into head/thorax and abdomen. Thoraxes and heads were triturated with a mortar and pestle and suspended in medium RPMI 1640 containing 1% C57BL/6 mouse serum (Rockland Co, Gilbertsville, Pa., USA). 50-80 heads with glands total were placed into a 0.5 ml Osaki tube on top of glass wool with enough dissection media to cover the heads. Until all mosquitoes had been dissected, the Osaki tube was kept on ice. Sporozoites that were isolated from the same batch of mosquitoes were inoculated into C57BL/6, 2D knock-out and 2D knock-out/2D6 knock-in C57BL/6 mice on the same day to control for biological variability in sporozoite preparations. On day 0, each mouse was inoculated intravenously in the tail vein with approximately 10,000 sporozoites suspended in 0.1 ml volume. They were stained with a vital dye containing fluorescein diacetate (50 mg/ml in acetone) and ethidium bromide (20 μg/ml in phosphate buffered saline; Sigma Chemical Co, St. Louis, Mo., USA) and counted in a haemocytometer to ensure that inoculated sporozoites were viable following the isolation procedure. Viability of the sporozoites ranged from 90 to 100%.
At the time of preparation of the suspension solution, compounds tested in these experiments were dosed based on the body weight. The suspension solution of oral agents, using homogenizer (PRO Scientific Inc, Monroe, Conn., USA) with 10 mm open-slotted generator to homogenize drug powder mixture at 20,000-22,000 rpm for 5 min in ice bath, were prepared in 0.5% (w/v) hydroxyethyl cellulose and 0.2% (0.5% HECT, v/v) Tween-80 in distilled water. […]
All of the in vivo imaging system (IVIS) methods utilized have been described previously. […] Additionally, using a flow cytometry system (FC500 MPL, Beckman Coulter, Miami, Fla., USA), blood-stage infections were measured. […] D-Luciferin potassium salt, (Xenogen, California and Goldbio, St Louis, Mo., USA), the luciferase substrate, was inoculated intraperitoneally into mice at a concentration of 200 mg/kg 15 min before luminescence analysis. […] Using Living Image® 3.0 software, photons emitted from specific regions were quantified.
Parasitemia was measured after days of IVIS imaging. During a total of 30 days, mice were observed and parasitemia level determined using FACs analysis. […]

[2] = system: Toxoplasma gondii (Pru strain expressing luciferase) tachyzoites; test: Toxoplasma in vivo, IVIS luminescence in mice; conditions: 5 mg/kg/day IP
Experimental: IVIS. Mice were infected intraperitoneally with 20×10^3 Toxoplasma gondii (Pru strain expressing luciferase) tachyzoites. Treatment commenced 2 hours later with JAG21 (5 mg/kg) which was dissolved in DMSO and administered intraperitoneally in a total volume of 0.05 ml. Mice were imaged every second day starting on day 4 post infection using a IVIS Spectrum (Caliper Life Sciences) for a 1 minute exposures, with medium binning, 20 minutes post injection with 150 mg/kg of D-luciferin potassium salt solution.

HEP G2 = test: IC50 with HEP G cells (toxicity); format: cell-based, human; conditions: not toxic
RH-YFP = test: Assessment of compound degradation and microbicidal effect on Toxoplasma; format: cell-based, Toxoplasma gondii
Experimental: HFF were cultured in a 96-well plate and infected with RH-YFP as described above on Day 0, 20 μL of compound was added to 9 wells for each compound and concentration (3 conditions, 3 wells per condition). In condition I, media was removed and replaced with fresh media on Day 3. In condition II, media was removed and replaced with fresh media and more compound on Day 3. In condition III, media was not replaced on Day 3, nor was the compound refreshed. On Day 6, media was removed and replaced with clean media in all wells. On Day 3, 6, and 9 plate was read in the fluorimeter and analyzed graphically in Prism (GraphPad Software).

[3] = system: T. gondii RH and Prugniaud strain tachyzoites; test: Tachyzoite infection in mice; format: in vivo, Toxoplasma gondii; conditions: for efficacy against Prugniaud (Type 2) tachyzoites in mice: 25 mg/kg daily
Experimental: Ability of compounds to abrogate tachyzoites multiplication was assessed using an in vivo imaging system (IVIS). To facilitate this we have T. gondii strains from each of the 3 major lineages expressing the luciferase gene. In these studies mice are injected intraperitoneally with tachyzoites and parasite proliferation followed up to 30 days post infection. Removal of brains at 30 days allows parasite quantitation by bioluminescence ex vivo using the IVIS. As an alternative method to improve screening efficiency and scalability it is possible for initial screening to use zebrafish with histopathology and visualization as shown in FIG. 6. Quantitation also was performed using QT PCR as described for mice or in translucent Casper zebrafish with parasites with fluors or luciferase to screen rapidly. Tachyzoites and bradyzoites in cysts were used for IP infection and compounds given intraperitoneally.
To test type II parasites, we used T. gondii Me49 and Prugneaud parasites^S39.

[4] = system: T. gondii Me49 strain cysts; test: Established brain cysts in mice (chronic infection); format: in vivo, Toxoplasma gondii; conditions: cysts established >2 months earlier, 12.5-25 mg/kg for 17 days
Experimental: The ability of compounds to reduce cyst burden and prevent encephalitis induced by the Type II strain of T. gondii were tested. Encephalitis was assessed by histological analyses and parasite burdens evaluated by quantitation of cysts.
The oocyst challenge model is ideal for this study because oocysts can be diluted at one time and stored at 4° C. for 12 months without loss of infectivity titer. For treatment of chronic infection there were 5 to 10 mice per group treated 2 months after infection was established by compound in DMSO for parenteral administration administered once per day. Treatment was for 17 days.

[5] = P. berghei, 0.625 mg/kg x3 or 2.5 mg/kg single oral dose

Compound	P. berghei cure, 3 oral doses ([1]; 3 oral doses (days -1, 0, +1), 0.625 mg/kg)	parasitemia [1, 5]	survival at 30 days [1, 5]	P. berghei cure, single oral dose ([1]; single dose 2.5 mg/kg, oral, 2.5 mg/kg)	effect on T. gondii tachyzoites in mice [2]	toxicity to human HepG cells (HEP G2)	compound degradation over time (RH-YFP; 6-day exposure in culture)	microbicidal effect (RH-YFP; RH-YFP, media replaced)	efficacy against Prugniaud (Type 2) tachyzoites in mice [3]	efficacy against RH tachyzoites in mice ([3]; 25 mg/kg daily intraperitoneally, RH-YFP)	efficacy against Prugniaud (Type 2) tachyzoites in mice ([3]; listed as MJM 170)	toxicity in mice ([3]; 25 mg/kg for 5 days)	effect on numbers of Me49 strain cysts in mice [4]	effect on numbers of Me49 strain cysts in mice ([4]; listed as MJM 170)
Cc1[nH]c2c(c(=O)c1-c1ccc(Oc3ccc(OC(F)(F)F)cc3)cc1)CCCC2 [JAG21, 2-methyl-3-(4-(4-(trifluoromethoxy)phenoxy)phenyl)-5,6,7,8-tetrahydroquinolin-4(1H)-one]	protect and cure	no parasitemia	100%	cures and cure	protects against Toxoplasma gondii tachyzoites; also recorded: cleared; also recorded: eliminates T. gondii tachyzoites	> 17 µM	did not appear that the compound was being degraded over time	Neither compound was found to be microbicidal	–	–	–	–	–	–
Cc1[nH]c2c(c(=O)c1-c1ccc(Oc3ccccc3)cc1)CCCC2 [MJM170]	–	–	–	–	–	–	–	–	highly efficacious	highly efficacious; also recorded: eliminates active infection	reduces Type 2 parasites	without toxicity	modestly reduced numbers	reduces cysts
